Assays:
Format in all cases: in vivo
Foxtail, Green [1] = assay: Test A preemergence, directed soil spray, visual injury rating; details: 0 is no effect, 100 is complete control
[2] = tested on: barnyardgrass (Echinochloa crus-galli); assay: as above; details: 0 is no effect, 100 is complete control
Procedure, shortened: (§1)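 Injury ratings, 0 (no effect) to 100 (complete control), were scored visually versus untreated plants roughly 10 d after treatment under greenhouse conditions. Treatments used surfactant-containing solvent formulations, sprayed onto soil preemergence or onto one- to two-leaf seedlings (2-10 cm) postemergence, grown in a loam-sand mix.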

kochia (Kochia scoparia) [3] = assay: as above; details: 0 is no effect, 100 is complete control
Procedure, shortened: as §1

[4] = tested on: pigweed (Amaranthus retroflexus); assay: as above; details: 0 is no effect, 100 is complete control
Procedure, shortened: as §1

[5] = tested on: ragweed (common ragweed, Ambrosia elatior); assay: as above; details: 0 is no effect, 100 is complete control
Procedure, shortened: as §1

[6] = tested on: ryegrass, It. (Italian ryegrass, Lolium multiflorum); assay: as above; details: 0 is no effect, 100 is complete control
Procedure, shortened: as §1

[7] = tested on: barnyardgrass (Echinochloa crus-galli); assay: Test B flooded paddy test, visual rating; details: Flood, 250 g ai/ha, applied to paddy water, rated after 13 to 15 d
Procedure, shortened: (§2)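 Ratings use a 0-100 visual scale, where 100 is complete control, and compare treated plants with controls after 13 to 15 d of greenhouse growth. Compound went straight into paddy water kept 3 cm over the soil surface, applied to seedlings at the 2-leaf stage.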

[8] = tested on: ducksalad (Heteranthera limosa); assay: Test B flooded paddy test, visual rating; details: Flood, 250 g ai/ha, applied to paddy water, rated after 13 to 15 d
Procedure, shortened: as §2

rice (Oryza sativa) = assay: Test B flooded paddy test, visual rating; details: Flood, 250 g ai/ha, applied to paddy water, rated after 13 to 15 d
Procedure, shortened: as §2

[9] = tested on: sedge, umbrella (small-flower umbrella sedge, Cyperus difformis); assay: Test B flooded paddy test, visual rating; details: Flood, 250 g ai/ha, applied to paddy water, rated after 13 to 15 d
Procedure, shortened: as §2

Foxtail, Green [10] = assay: Test A postemergence application, visual injury rating; details: for Foxtail, Green plant response rating: 0 to 100 scale, 0 no effect, 100 complete control
Procedure, shortened: as §1

[11] = tested on: barnyardgrass (Echinochloa crus-galli); assay: as above; details: 0 to 100 scale, 0 no effect, 100 complete control
Procedure, shortened: as §1

[12] = tested on: blackgrass (Alopecurus myosuroides); assay: as above; details: 0 to 100 scale, 0 no effect, 100 complete control
Procedure, shortened: as §1

corn (Zea mays) = assay: as above; details: for Corn plant response rating: 0 to 100 scale, 0 no effect, 100 complete control
Procedure, shortened: as §1

[13] = tested on: galium (catchweed bedstraw, Galium aparine); assay: as above; details: for Galium plant response rating: 0 to 100 scale, 0 no effect, 100 complete control
Procedure, shortened: as §1

kochia (Kochia scoparia) [14] = assay: as above; details: for Kochia plant response rating: 0 to 100 scale, 0 no effect, 100 complete control
Procedure, shortened: as §1

[15] = tested on: pigweed (Amaranthus retroflexus); assay: as above; details: for Pigweed plant response rating: 0 to 100 scale, 0 no effect, 100 complete control
Procedure, shortened: as §1

[16] = tested on: ragweed (common ragweed, Ambrosia elatior); assay: as above; details: for Ragweed plant response rating: 0 to 100 scale, 0 no effect, 100 complete control
Procedure, shortened: as §1

[17] = tested on: ryegrass, It. (Italian ryegrass, Lolium multiflorum); assay: as above; details: for Ryegrass, It. plant response rating: 0 to 100 scale, 0 no effect, 100 complete control
Procedure, shortened: as §1

[18] = tested on: wheat (Triticum aestivum); assay: as above; details: for Wheat plant response rating: 0 to 100 scale, 0 no effect, 100 complete control
Procedure, shortened: as §1

[19] = 31 g ai/ha, 0 is no effect, 100 is complete control

Structure (SMILES)	Plant response rating (0 to 100 scale), Foxtail, Green (Foxtail, Green [1]; 31 g ai/ha)	Plant response rating (0 to 100 scale), Foxtail, Green (Foxtail, Green [1]; 125 g ai/ha)	Plant response rating (0 to 100 scale), Barnyardgrass ([2]; 31 g ai/ha)	Plant response rating (0 to 100 scale), Barnyardgrass ([2]; 125 g ai/ha)	Plant response rating (0 to 100 scale), Kochia (kochia (Kochia scoparia) [3]; 31 g ai/ha)	Plant response rating (0 to 100 scale), Kochia (kochia (Kochia scoparia) [3]; 125 g ai/ha)	Plant response rating (0 to 100 scale), Pigweed ([4]; 31 g ai/ha)	Plant response rating (0 to 100 scale), Pigweed ([4]; 125 g ai/ha)	Plant response rating (0 to 100 scale), Ragweed ([5]; 31 g ai/ha)	Plant response rating (0 to 100 scale), Ragweed ([5]; 125 g ai/ha)	Plant response rating (0 to 100 scale), Ryegrass, It. ([6]; 31 g ai/ha)	Plant response rating (0 to 100 scale), Ryegrass, It. ([6]; 125 g ai/ha)	Barnyardgrass plant response rating (0 to 100 scale, 0 is no effect, 100 is complete control) [7]	Ducksalad plant response rating (0 to 100 scale, 0 is no effect, 100 is complete control) [8]	Rice plant response rating (0 to 100 scale, 0 is no effect, 100 is complete control) (rice (Oryza sativa))	Sedge, Umbrella plant response rating (0 to 100 scale, 0 is no effect, 100 is complete control) [9]	Foxtail, Green plant response rating (Foxtail, Green [10]; 125 g ai/ha)	Barnyardgrass plant response rating ([11]; 31 g ai/ha)	Barnyardgrass plant response rating ([11]; 125 g ai/ha)	Blackgrass plant response rating ([12]; 31 g ai/ha)	further results
Cn1nc(Cl)c(O)c(-c2cccc3c2nnn3C)c1=O [Compound 61]	0	0	0	0	0	0	0	0	0	0	0	0	0	0	0	0	0	0	0	0	Plant response rating (0 to 100 scale), Foxtail, Green (Foxtail, Green [10]; [19]): 0; Blackgrass plant response rating ([12]; 125 g ai/ha): 0; Plant response rating (0 to 100 scale), Corn (corn (Zea mays); [19]): 0; Corn plant response rating (corn (Zea mays); 125 g ai/ha): 0; Plant response rating (0 to 100 scale), Galium [13, 19]: 0; Galium plant response rating ([13]; 125 g ai/ha): 0; Plant response rating (0 to 100 scale), Kochia (kochia (Kochia scoparia) [14]; [19]): 0; Kochia plant response rating (kochia (Kochia scoparia) [14]; 125 g ai/ha): 0; Plant response rating (0 to 100 scale), Pigweed [15, 19]: 0; Pigweed plant response rating ([15]; 125 g ai/ha): 0; Plant response rating (0 to 100 scale), Ragweed [16, 19]: 0; Ragweed plant response rating ([16]; 125 g ai/ha): 0; Plant response rating (0 to 100 scale), Ryegrass, It. [17, 19]: 0; Ryegrass, It. plant response rating ([17]; 125 g ai/ha): 0; Plant response rating (0 to 100 scale), Wheat [18, 19]: 0; Wheat plant response rating ([18]; 125 g ai/ha): 0
Cc1cc2ccc(C(F)(F)F)c(-c3c(O)c(C)nn(C)c3=O)c2o1 [Compound 49]	0	0	0	0	0	40	30	100	0	90	20	50	0	0	0	0	30	0	10	0	Foxtail, Green plant response rating (Foxtail, Green [10]; 31 g ai/ha): 20; Blackgrass plant response rating ([12]; 125 g ai/ha): 0; Corn plant response rating (corn (Zea mays); 31 g ai/ha): 0; Corn plant response rating (corn (Zea mays); 125 g ai/ha): 20; Galium plant response rating ([13]; 31 g ai/ha): 80; Galium plant response rating ([13]; 125 g ai/ha): 90; Kochia plant response rating (kochia (Kochia scoparia) [14]; 31 g ai/ha): 60; Kochia plant response rating (kochia (Kochia scoparia) [14]; 125 g ai/ha): 80; Pigweed plant response rating ([15]; 31 g ai/ha): 90; Pigweed plant response rating ([15]; 125 g ai/ha): 100; Ragweed plant response rating ([16]; 31 g ai/ha): 80; Ragweed plant response rating ([16]; 125 g ai/ha): 90; Ryegrass, It. plant response rating ([17]; 31 g ai/ha): 10; Ryegrass, It. plant response rating ([17]; 125 g ai/ha): 40; Wheat plant response rating ([18]; 31 g ai/ha): 0; Wheat plant response rating ([18]; 125 g ai/ha): 0
CC(=O)Oc1c(C)nn(C)c(=O)c1-c1c(C(F)(F)F)ccc2cc(C)oc12 [Compound 48]	0	20	0	20	10	20	20	100	0	90	10	20	0	0	0	0	10	0	10	0	Foxtail, Green plant response rating (Foxtail, Green [10]; 31 g ai/ha): 0; Blackgrass plant response rating ([12]; 125 g ai/ha): 0; Corn plant response rating (corn (Zea mays); 31 g ai/ha): 0; Corn plant response rating (corn (Zea mays); 125 g ai/ha): 20; Galium plant response rating ([13]; 31 g ai/ha): 80; Galium plant response rating ([13]; 125 g ai/ha): 80; Kochia plant response rating (kochia (Kochia scoparia) [14]; 31 g ai/ha): 50; Kochia plant response rating (kochia (Kochia scoparia) [14]; 125 g ai/ha): 70; Pigweed plant response rating ([15]; 31 g ai/ha): 70; Pigweed plant response rating ([15]; 125 g ai/ha): 100; Ragweed plant response rating ([16]; 31 g ai/ha): 70; Ragweed plant response rating ([16]; 125 g ai/ha): 90; Ryegrass, It. plant response rating ([17]; 31 g ai/ha): 0; Ryegrass, It. plant response rating ([17]; 125 g ai/ha): 30; Wheat plant response rating ([18]; 31 g ai/ha): 0; Wheat plant response rating ([18]; 125 g ai/ha): 0
Cc1nn(C)c(=O)c(-c2ccc(Cl)c3ccoc23)c1O [Compound 56]	0	0	0	0	0	0	0	40	0	0	10	70	0	0	0	0	10	0	10	0	Foxtail, Green plant response rating (Foxtail, Green [10]; 31 g ai/ha): 0; Blackgrass plant response rating ([12]; 125 g ai/ha): 0; Corn plant response rating (corn (Zea mays); 31 g ai/ha): 0; Corn plant response rating (corn (Zea mays); 125 g ai/ha): 0; Galium plant response rating ([13]; 31 g ai/ha): 60; Galium plant response rating ([13]; 125 g ai/ha): 100; Kochia plant response rating (kochia (Kochia scoparia) [14]; 31 g ai/ha): 0; Kochia plant response rating (kochia (Kochia scoparia) [14]; 125 g ai/ha): 0; Pigweed plant response rating ([15]; 31 g ai/ha): 0; Pigweed plant response rating ([15]; 125 g ai/ha): 0; Ragweed plant response rating ([16]; 31 g ai/ha): 0; Ragweed plant response rating ([16]; 125 g ai/ha): 0; Ryegrass, It. plant response rating ([17]; 31 g ai/ha): 50; Ryegrass, It. plant response rating ([17]; 125 g ai/ha): 50; Wheat plant response rating ([18]; 31 g ai/ha): 0; Wheat plant response rating ([18]; 125 g ai/ha): 0
